Assay results: patent publication US20090143419A1, “METHODS AND COMPOSITIONS FOR CONTROLLING ECTOPARASITES” (HATCHTECH PTY LTD, priority 2005, published 2009)
Entries after “also recorded” stand apart in the source; their conditions may differ. Counter-ions that a name gives are not always drawn. Like-named read-outs stand apart in the source and are kept apart here. Square brackets hold non-standard residues; d marks the D form. Peptide text beside a SMILES is read from it. * marks the point of attachment. Sta = CC(C)C[C@H](N)[C@@H](O)CC(=O)O; Isovaleryl = CC(C)CC(=O)*; Cbz = O=C(OCc1ccccc1)*; NHOH = ON*

Key:
[1] = system: lice eggs; test: Time-course in vitro lice egg hatching assay; format: in vivo, clothing lice (Pediculus humanus humanus); details: for effect on egg hatching: results not shown
[2] = system: Helicoverpa armigera eggs (Tatura×Toowoomba strains); test: Egg hatching of Helicoverpa armigera; details: Table 15
Description: Several hundred Helicoverpa armigera eggs (Tatura×Toowoomba strains) were collected, that had been laid on fine mesh cloth over a 24 hour period.
Batches of Helicoverpa eggs were exposed to a specific inhibitor solution for between 2-10 seconds the excess solution drained by blotting with dry tissue paper. The egg masses were then placed in a humid box at 25 degrees until egg hatch. Control eggs were exposed to absolute methanol as described above.

[3] = system: Plutella xylostella eggs (Waite strain); test: Egg hatching of Plutella xylostella
Description: The egg masses were then placed in a humid box at 25 degrees until egg hatch. Control eggs were exposed to absolute methanol as described above. At day 6 post laying the eggs were assessed from the different treatments and the percentage of egg hatch determined relative to the control as shown in Table 9.
Batches of Plutella eggs that were laid on either fine cloth or parafilm were dipped in a specific inhibitor solution for between 2-10 seconds, the excess solution was drained by blotting with dry tissue paper. The egg masses were then placed in a humid box at 25 degrees until egg hatch. Control eggs were exposed to absolute methanol as described above or not treated. At day 6 post laying the eggs were assessed from the different treatments and the percentage of egg hatch determined relative to the controls as shown in Tables 10 and 11.
Batches of Plutella eggs that were laid on fine cloth were dipped in a specific inhibitor solution for approximately 2 seconds, the excess solution was drained by blotting with dry tissue paper. The egg masses were then placed in a humid box at 25 degrees until egg hatch. Control eggs were exposed to absolute methanol as described above or not treated. At day 6 post laying the eggs were assessed from the different treatments and the percentage of egg hatch determined relative to the control as shown in Table 12.
The egg masses were then placed in a humid box at 25 degrees until egg hatch. Control eggs were exposed to absolute ethanol as described above. On day 6 post laying the eggs were assessed from the different treatments and the percentage of egg hatch determined relative to the control.

[4] = system: lice hatching proteases in the egg shell washings (ESW); test: Gelatine substrate SDS-PAGE of egg shell washings treated with protease inhibitors; format: biochemical, Pediculus humanus humanus; details: 3 hrs at 37° C.
Description: Within 12 hours of hatching 50 body lice eggs (Pediculus humanus humanus) were removed from the hair and placed in a 1 ml eppendorf tube. 20 μL of distilled water was added to the unhatched eggs and the preparation incubated for 30 minutes at 32° C. The 20 μL was recovered, freeze dried and stored at −70° C. A number of other samples were also collected as described. Hair samples from which unhatched lice eggs had been removed were also collected and incubated as described above. In addition, a sample of unhatched eggs and a sample of hair from which lice eggs had been removed were collected 7 days post laying (within 24 hrs of egg hatching). Both samples were washed in 10 mls of a 1% solution of sodium hypochlorite for 1 minute followed by a 5×1 minute washes in 25 mls in distilled water to remove the hypochlorite. These samples were then incubated in 20 μL of distilled water as described above. In addition, a group of 25 lice eggs that were within 24 hours of hatching, were pretreated with 1% sodium hypochlorite, washed as described above and left to hatch. Within 1-2 hours after hatching the empty egg shells were incubated in 20 μL of distilled water as described above, the washings collected from the hatched egg shells and stored at −70° C. All of the extract samples were then freeze-dried overnight. The freeze-dried samples were then resuspended in 15 μL of non-reducing SDS sample buffer, centrifuged at 10,000 g for 2 minutes and the entire 15 μL loaded on to 10% gelatine substrate SD S-PAGE gels. Gels were run at 4° C. for 10 minutes at 10 mA followed by a further 25 minutes at 15 mA per gel. They were then incubated for 2×20 minutes in a 2.5% Triton-X 100 solution followed by a three hour incubation in 0.1M Tris/HCl containing 1 mM CaCl2 pH 8.0. Activity was detected as clear areas on the gel the result of protease activity degrading the gelatine within the gel.
10% SDS-PAGE gelatine substrate gels were loaded with freeze dried egg shell washings from 100 lice eggs that had been resuspended in 50 μl of non-reducing sample buffer with samples run at 10 μl per lane. Gels were run at 4° C. for 10 minutes at 10 mA per gel followed by a further 25 minutes at 15 mA per gel. Gels were then cut into strips and each strip incubated for 2×20 minutes in a 2.5% Triton-X 100 solution containing a specific inhibitor. The inhibitors used were the serine protease inhibitor PMSF (5 mM), the metalloprotease inhibitor 1,10-phenanthroline (10 mM), the aspartic protease Pepstatin (5 μM) and the cysteine inhibitor E-64 (10 μM). The gel strips were then incubated in 0.1M Tris/HCl containing 1 mM CaCl2 pH 8 containing the different protease inhibitors for 3 hrs at 37° C., before being stained in Coomassie blue and destained as previously described.

[5] = system: lice eggs; test: Lice egg-hatch bioassay, eggs treated five days post laying; format: in vivo, clothing lice (Pediculus humanus humanus)
Description: To evaluate the potential effects of protease inhibitors on lice egg hatching it was necessary to develop a reliable in vitro bioassay. Male and female clothing lice were fed on a rabbit as previously described. […] During this period the female lice laid their eggs and attached them to the woven cloth. All lice would then be removed and the eggs permitted to incubate for the following 5 days. […] The eggs would then progress through to their final stages of development and hatch. In untreated control eggs a reliable average percentage hatch of between 85-95 percent was obtained using the in vitro egg hatch assay. […] Lice eggs were laid onto cloth as described above. […] Protease inhibitor solutions were typically prepared as stock solutions and added fresh at the appropriate concentration. Specifically stock solutions were prepared as follows: 1,10-phenanthroline (200 mM in methanol) and bestatin (5 mg/ml in methanol). In addition, the equivalent levels of the solvent were added to the non-inhibitor containing controls eggs to test for any buffer alone effects. Percentage hatch inhibition was calculated as the percentage reduction in egg hatch compared to the untreated control.

[6] = Pediculus humanus, 5 mg/ml, read-out: % Inhibition of lice egg hatching (maximum over the time-course)
[7] = Table 10, 1 mM, eggs laid on cloth
[8] = Table 10, 10 mM, eggs laid on cloth
[9] = Table 11, 1 mM, eggs laid on parafilm
[10] = Table 12, 0.01 mM, cloth, dipped approximately 2 seconds
[11] = Table 12, 0.1 mM, cloth, dipped approximately 2 seconds
[12] = Table 12, 1 mM, cloth, dipped approximately 2 seconds
[13] = Table 12, 10 mM, cloth, dipped approximately 2 seconds
[14] = Pediculus humanus, 5 mM, read-out: % Inhibition of lice egg hatching (maximum over the time-course)

Compound: CN(C)c1ccc(O)c2c1C[C@H]1C[C@H]3[C@H](N(C)C)C(O)=C(C(N)=O)C(=O)[C@@]3(O)C(O)=C1C2=O [minocycline, reference compound]
- inhibition at 5000 µg/mL [1, 6]: 55%

Compound: CC(C)C[C@H](NC(=O)[C@@H](O)[C@H](N)Cc1ccc([N+](=O)[O-])cc1)C(=O)O [nitrobestatin, reference compound]
- % Inhibition of lice egg hatching (maximum over the time-course) ([1]; 1 mg/ml): 0%

Compound: Cc1ccnc(-c2cc(C)ccn2)c1 [4,4′-dimethyl-2,2′-dipyridyl]
- Number hatched ([2]; 1 mM): 23
- Number unhatched ([2]; 1 mM): 29
- Number hatched ([2]; 10 mM): 8
- Number unhatched ([2]; 10 mM): 43
- Number hatched [3, 7]: 0
- Number unhatched [3, 7]: 30
- % Inhibition ([3]; Table 10, 1 mM, eggs laid on cloth, relative to controls): 100%
- Number hatched [3, 8]: 0
- Number unhatched [3, 8]: 36
- % Inhibition ([3]; Table 10, 10 mM, eggs laid on cloth, relative to controls): 100%
- Number hatched [3, 9]: 10
- Number unhatched [3, 9]: 121
- % Inhibition ([3]; Table 11, 1 mM, eggs laid on parafilm, relative to controls): 91%
- Number hatched ([3]; Table 11, 10 mM, eggs laid on parafilm): 0
- % Inhibition ([3]; Table 11, 10 mM, eggs laid on parafilm, relative to controls): 100%
- Number hatched [3, 10]: 29
- Number unhatched [3, 10]: 1
- Number hatched [3, 11]: 33
- Number unhatched [3, 11]: 18
- Number hatched [3, 12]: 0
- Number unhatched [3, 12]: 63
- Number hatched [3, 13]: 1
- Number unhatched [3, 13]: 77

Compound: c1ccc(-c2ccccn2)nc1 [2,2′-dipyridyl]
- % Inhibition of lice egg hatching (maximum over the time-course) ([1]; 10 mM): 100%
- Ph (number of eggs partly hatched) ([1]; Table 5, […], per replicate): 0
- lice egg hatching ([1]; in vivo): completely inhibited

Compound: O=C(O)CN(CCOCCOCCN(CC(=O)O)CC(=O)O)CC(=O)O [EGTA, reference compound]
- effect on egg hatching ([1]; 10 mM): did not appear to have an effect

Compound: CCCCC[C@H](CC(=O)NO)C(=O)N[C@H](C(=O)N1CCC[C@H]1CO)C(C)C [actinonin, reference compound]
- inhibition at 5000 µM [1, 14]: 0%

Compound: CC(C)C[C@H](NP(=O)(O)O[C@@H]1O[C@@H](C)[C@H](O)[C@@H](O)[C@H]1O)C(=O)N[C@@H](Cc1c[nH]c2ccccc12)C(=O)O [phosphoramidon, N-(alpha-rhamnopyranosyloxy-hydroxyphosphinyl)-L-leucyl-L-tryptophan, reference compound]
- inhibition at 5000 µM [1, 14]: 41%

Compound: [H]/N=C(\N/C(=N/[H])NCCCCCCNC(=N)NC(=N)Nc1ccc(Cl)cc1)Nc1ccc(Cl)cc1 [chlorhexidine dihydrochloride, reference compound]
- % Inhibition of lice egg hatching (maximum over the time-course) ([1]; concentration not given): 0%

Compound: CC(C)C[C@H](NC(=O)[C@H]1O[C@@H]1C(=O)O)C(=O)NCCCCN=C(N)N [Inhibitor E-64]
- protease activity of the ESW ([4]; 10 μM inhibitor): No reduction in protease activity

Compound: c1ccc(-c2ccc3ccccc3n2)nc1 [2-(2-pyridinyl)quinoline]
- % Inhibition ([3]; Table 16, 10 mM, relative to control (100% ETOH)): able to inhibit egg hatching

Compound: CC(C)C[C@H](N)CS [L-leucinthiol, reference compound]
- inhibition at 5000 µM [1, 14]: 0%

Compound: CC(C)C[C@@H](N)[C@H](O)C(=O)N[C@H](C(=O)N[C@H](C(=O)N[C@@H](CC(=O)O)C(=O)O)C(C)C)C(C)C [amastatin, reference compound]
- inhibition at 5000 µM [1, 14]: 26%

Compound: CC(C)CC(=O)N[C@H](C(=O)N[C@H](C(=O)N[C@@H](CC(C)C)[C@@H](O)CC(=O)N[C@@H](C)C(=O)N[C@@H](CC(C)C)[C@@H](O)CC(=O)O)C(C)C)C(C)C [pepstatin] (Isovaleryl-VV[Sta]A[Sta]-OH)
- protease activity of the ESW ([4]; 5 μM inhibitor): did not show any reduction in protease activity; also recorded: No reduction in protease activity

Compound: CC(C)C[C@H](NC(=O)[C@@H](O)[C@H](N)Cc1ccccc1)C(=O)O [bestatin, reference compound]
- inhibition at 5000 µM [1, 14]: 58%
- inhibition at 5000 µM ([1]; Pediculus humanus, 144 h, 5 mM, treated 144 hr post egg laying, read-out: Percent inhibition of egg hatching): 53%
- lice egg hatching ([5]; 5 mM, eggs treated 5 days post laying): significantly inhibit lice egg hatching
- inhibition of egg hatching ([5]; added within 24 hours of hatching): variable inhibition

Compound: O=C(O)CNC(=O)C(CS)Cc1ccccc1 [D-L thiorophan, reference compound]
- % Inhibition of lice egg hatching (maximum over the time-course) ([1]; 1 mg/ml): 20%

Compound: O=C(O)CN(CCN(CC(=O)O)CC(=O)O)CC(=O)O [EDTA, reference compound]
- effect on egg hatching ([1]; 100 mM): did not appear to have an effect

Compound: C[C@H](CS)C(=O)N1CCC[C@H]1C(=O)O [captopril, 1-[(2S)-3-mercapto-2-methyl-1-oxopropyl]-L-proline, reference compound]
- inhibition at 23000 µM ([1]; Pediculus humanus, 23 mM, read-out: % Inhibition of lice egg hatching (maximum over the time-course)): 27%

Compound: CN(C)[C@@H]1C(O)=C(C(N)=O)C(=O)[C@@]2(O)C(O)=C3C(=O)c4c(O)cccc4[C@@](C)(O)[C@H]3C[C@@H]12 [tetracycline, reference compound]
- inhibition at 5000 µg/mL [1, 6]: 89%

Compound: O=S(=O)(F)Cc1ccccc1 [PMSF]
- protease activity of the ESW ([4]; 5 mM inhibitor): No reduction in protease activity

Compound: CC(C)C[C@H](N)[C@](O)(Cc1cnc[nH]1)C(=O)O [leuhistin, reference compound]
- % Inhibition of lice egg hatching (maximum over the time-course) ([1]; 5 mM): 0%

Compound: CO[C@@H]1[C@H](OC(=O)/C=C/C=C/C=C/C=C/C(=O)O)CC[C@]2(CO2)[C@H]1[C@@]1(C)O[C@@H]1CC=C(C)C [fumagillin, reference compound]
- inhibition at 5000 µM [1, 14]: 0%

Compound: CNC(=O)[C@H](Cc1c[nH]c2ccccc12)NC(=O)[C@@H](CC(=O)NO)CC(C)C [GM 6001, reference compound]
- % Inhibition of lice egg hatching (maximum over the time-course) ([1]; concentration not given): 0%

Compound: CC(C)C[C@H](NC(=O)[C@@H]1CCCN1C(=O)OCc1ccccc1)C(=O)NCC(=O)NO [N-CBZ-PRO-LEU-GLY hydroximate, reference compound] (Cbz-Pro-Leu-Gly-{NHOH})
- % Inhibition of lice egg hatching (maximum over the time-course) ([1]; 10 mM): 0%

Compound: C[C@H]1c2cccc(O)c2C(=O)C2=C(O)[C@]3(O)C(=O)C(C(N)=O)=C(O)[C@@H](N(C)C)[C@@H]3[C@@H](O)[C@@H]21 [doxycycline, reference compound]
- % Inhibition of lice egg hatching (maximum over the time-course) ([1]; 5 mg/ml): 69%
- inhibition at 5000 µg/mL [1, 6]: 65%
